In US20080200535A1, “Amine Compounds” (Asahi Kasei Pharma Corporation, priority 2006, published 2008):
pEC50: −log10 of the molar value.

Each compound was assayed against T1, S1P1 receptor (Homo sapiens, UniProt P21453) (assay: 35S-GTPγS binding assay using membrane preparation of CHO cell stably expressing S1P1 receptor). Details: agonist activity.
T1 construct: expressed in transfected cells; membrane preparation
Type: biochemical
Procedure: ^35s-GTPγS binding assay using membrane preparation of CHO cell stably expressing S1P1 receptor
A G protein-GTPγS binding test associated with a ligand was performed by using a membrane preparation which was obtained from a CHO cell which stably overexpressed S1P1 receptor. In a 96 well-micro-titer dish, the produced membrane protein and a compound which was diluted with a solvent such as DMSO or sphingosine-1-phosphate in various concentrations was incubated in a solution containing 20 mM of Tris-Cl (pH7.5), 100 mM of NaCl, 10 mM of MgCl2, 5μM of GDP, 0.1% of BSA, and […] of ^35s-GTPγS (specific radioactivity, 1250 Ci mmol). The binding was performed for 1 or more hours at room temperature, and the membrane was harvested on a GF/B filter plate by using a Millipore's MultiScreen Separation System to end the binding. After the filter plate was dried for 30 or more minutes, 25 μL of MicroScint-20 was added to each well, and the binding was measured by using the TopCount.
For the agonist activity of compound, the value of a well which a solvent was added to was set to a control value and compared with an increment of an evaluation compound-added well, so that the increment of each concentration of the compound was obtained. EC50 value was calculated under the definition that the value is an agonist concentration required to provide 50% of the maximum increment thereof. […]

T1 sequence (P21453 whole entry): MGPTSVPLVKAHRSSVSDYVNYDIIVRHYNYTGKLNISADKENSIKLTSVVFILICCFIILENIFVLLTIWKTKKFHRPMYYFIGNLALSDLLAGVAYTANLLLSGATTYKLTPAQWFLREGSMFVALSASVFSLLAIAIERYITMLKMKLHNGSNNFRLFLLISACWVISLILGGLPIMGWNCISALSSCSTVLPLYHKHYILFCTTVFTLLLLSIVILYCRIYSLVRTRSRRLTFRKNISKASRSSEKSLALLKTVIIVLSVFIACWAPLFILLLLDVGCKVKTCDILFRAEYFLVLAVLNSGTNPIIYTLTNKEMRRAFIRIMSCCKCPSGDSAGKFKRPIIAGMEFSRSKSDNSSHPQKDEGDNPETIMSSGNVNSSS

pEC50 | SMILES
6.79 | O=C(O)C1CCC(NCc2ccc(OCc3cc(-c4ccccc4)c(C(F)(F)F)s3)cc2)CC1 (centres unmarked) [Example 9]
6.63 | O=C(O)[C@H]1CC[C@@H](NCc2ccc(OCc3cc(-c4ccccc4)c(C(F)(F)F)s3)cc2)CC1 [Example 13]
6.92 | O=C(O)[C@@H]1C[C@@H](O)[C@H](NCc2ccc(OCc3cc(-c4ccccc4)c(C(F)(F)F)s3)cc2)C1 [Example 15]
7.03 | O=C(O)[C@@H]1C[C@H](O)[C@H](NCc2ccc(OCc3cc(-c4ccccc4)c(C(F)(F)F)s3)cc2)C1 [Example 16]
6.60 | O=C(O)[C@H]1CC[C@@H](NCc2ccc(OCc3cc(-c4ccccc4)c(C(F)(F)F)s3)cc2)C1 [Example 18]
6.57 | O=C(O)[C@@H]1C[C@H](NCc2ccc(OCc3cc(-c4ccccc4)c(C(F)(F)F)s3)cc2)CN1 [Example 22]
7.06 | O=C(O)[C@@H]1CC=C[C@@H](NCc2ccc(OCc3cc(-c4ccccc4)c(C(F)(F)F)s3)cc2)C1 [Example 24]
6.43 | O=C(O)C(CO)NCc1ccc(OCc2cc(-c3ccccc3)c(C(F)(F)F)s2)cc1 (centres unmarked) [Example 27]
6.80 | O=C(O)[C@@H]1CC[C@H](NCc2ccc3cnn(Cc4ccc(-c5ccccc5)cc4)c3c2)C1 [Example 35, (1R,3s)-3-N-({1-(4-phenylbenzyl)-1H-indazol-6-yl)methyl}aminocyclopentane carboxylic acid]
7.60 | O=C(O)CCNCc1ccc(-c2noc(-c3ccc(-c4ncccc4C(F)(F)F)cc3)n2)cc1 [Example 41]
7.34 | CC(C)/C=C/CCCCc1nc(-c2ccc(CNCCC(=O)O)cc2)no1 [Example 43]
7.89 | O=C(O)CCNCc1ccc(-c2noc(-c3cnc(OC4CCCC4)c(Cl)c3)n2)cc1 [Example 44]
8.80 | O=C(O)CCNCc1ccc(-c2noc(-c3ccc(OC4CCCCC4)c(C(F)(F)F)c3)n2)cc1 [Example 45]
8.52 | O=C(O)CCNCc1ccc(-c2noc(-c3ccc(-c4ccccc4)cc3)n2)cc1 [Example 48]
9.22 | CC(C)Oc1ccc(-c2nc(-c3ccc(CNCCC(=O)O)cc3)no2)cc1C(F)(F)F [Example 49]
7.38 | O=C(O)CCNCc1ccc(-c2noc(-c3ccc(-c4ccccn4)cc3)n2)cc1 [Example 50]
7.47 | Cc1cc(-c2ccccc2)ccc1-c1nc(-c2ccc(CNCCC(=O)O)cc2)no1 [Example 55]
7.16 | O=C(O)CCNCc1ccc(-c2noc(-c3ccc(-c4ccc(C(F)(F)F)cc4)cc3)n2)cc1 [Example 57]
7.25 | Cc1cc(-c2ccccc2F)ccc1-c1nc(-c2ccc(CNCCC(=O)O)cc2)no1 [Example 58]
9.40 | O=C(O)CCNCc1ccc(-c2noc(-c3ccc(-c4ccccc4C(F)(F)F)cc3)n2)cc1 [Example 62]
9.10 | O=C(O)CCNCc1ccc(-c2noc(-c3ccc(-c4ccccc4F)cc3)n2)cc1 [Example 67]
8.26 | O=C(O)CCNCc1ccc(-c2noc(-c3ccc(-c4cccc(F)c4)cc3)n2)cc1 [Example 68]

pEC50 | SMILES
7.85 | O=C(O)CCNCc1ccc(-c2noc(-c3ccc(-c4ccc(F)cc4)cc3)n2)cc1 [Example 69]
9.92 | Cc1cc(-c2nc(-c3ccc(CNCCC(=O)O)cc3)no2)ccc1-c1cccc(F)c1 [Example 74]
9.47 | Cc1cc(-c2nc(-c3ccc(CNCCC(=O)O)cc3)no2)ccc1-c1ccc(F)cc1 [Example 75]
9.46 | Cc1cc(-c2nc(-c3ccc(CNCCC(=O)O)cc3)no2)ccc1-c1cccc(C(F)(F)F)c1 [Example 76]
7.89 | Cc1cc(-c2nc(-c3ccc(CNCCC(=O)O)cc3)no2)ccc1-c1ccc(C(F)(F)F)cc1 [Example 77]
7.96 | CC(C)Sc1ccc(-c2nc(-c3ccc(CNCCC(=O)O)cc3)no2)cc1 [Example 83]
9.51 | Cc1cc(-c2nc(-c3ccc(CNCCC(=O)O)cc3)no2)ccc1-c1ccccc1C(F)(F)F [Example 86]
8.00 | N#Cc1ccccc1-c1ccc(-c2nc(-c3ccc(CNCCC(=O)O)cc3)no2)c(F)c1 [Example 88]
9.77 | N#Cc1cc(-c2nc(-c3ccc(CNCCC(=O)O)cc3)no2)ccc1-c1ccccc1F [Example 89]
9.60 | Cc1cc(-c2nc(-c3ccc(CNCCC(=O)O)cc3)no2)ccc1C1CCCC1 [Example 91]
9.70 | Cc1cc(-c2nc(-c3ccc(CNCCC(=O)O)cc3)no2)ccc1C1CCCCC1 [Example 92]
7.60 | O=C(O)CCNCc1ccc(-c2noc(-c3ccc(-c4ccccc4)cn3)n2)cc1 [Example 95]
9.43 | O=C(O)CCNCc1ccc(-c2noc(-c3ccc(-c4ccccc4F)c(C(F)(F)F)c3)n2)cc1 [Example 98]
8.89 | O=C(O)CCNCc1ccc(-c2noc(-c3ccc(-c4ccccc4C(F)(F)F)c(C(F)(F)F)c3)n2)cc1 [Example 99]
8.77 | O=C(O)CCNCc1ccc(-c2noc(-c3ccc(-c4ccccc4OC(F)(F)F)c(C(F)(F)F)c3)n2)cc1 [Example 100]
9.39 | CCc1cc(-c2nc(-c3ccc(CNCCC(=O)O)cc3)no2)ccc1-c1ccccc1 [Example 101]
9.39 | CCc1cc(-c2nc(-c3ccc(CNCCC(=O)O)cc3)no2)ccc1-c1ccccc1C#N [Example 102]
8.41 | O=C(O)CCNCc1ccc(-c2noc(-c3ccc(/C=C/C(F)(F)F)cc3)n2)cc1 [Example 103]
9.54 | CCc1cc(-c2nc(-c3ccc(CNCCC(=O)O)cc3)no2)ccc1-c1ccccc1F [Example 108]
9.46 | Cc1ccccc1-c1ccc(-c2nc(-c3ccc(CNCCC(=O)O)cc3)no2)cc1C [Example 110]
9.77 | Cc1cc(-c2nc(-c3ccc(CNCCC(=O)O)cc3)no2)ccc1-c1ccccc1Cl [Example 111]
9.47 | Cc1cc(-c2nc(-c3ccc(CNCCC(=O)O)cc3)no2)ccc1-c1cccs1 [Example 112]

pEC50 | SMILES
10.15 | Cc1cc(-c2nc(-c3ccc(CNCCC(=O)O)cc3)no2)ccc1-c1ccsc1 [Example 113]
9.72 | Cc1cc(-c2nc(-c3ccc(CNCCC(=O)O)cc3)no2)ccc1-c1ccccc1OC(F)(F)F [Example 114]
10.40 | Cc1cc(-c2nc(-c3ccc(CNCCC(=O)O)cc3)no2)ccc1-c1cscc1C [Example 115]
8.82 | Cc1cc(-c2nc(-c3ccc(CNCCC(=O)O)cc3)no2)ccc1-c1ccco1 [Example 116]
9.35 | Cc1cc(-c2nc(-c3ccc(CNCCC(=O)O)cc3)no2)ccc1-c1ccccc1C(C)C [Example 118]
8.44 | O=C(O)CCNCc1ccc(-c2noc(-c3ccc(-c4ccccc4F)s3)n2)cc1 [Example 120]
9.70 | O=C(O)CCNCc1ccc(-c2noc(-c3cc(-c4ccccc4)c(C(F)(F)F)s3)n2)s1 [Example 124]
7.80 | CC(C)Cc1ccc(-c2nc(-c3ccc(CNCCC(=O)O)s3)no2)cc1 [Example 128]
8.35 | O=C(O)[C@H]1C[C@H](NCc2ccc(-c3noc(-c4cc(-c5ccccc5)c(C(F)(F)F)s4)n3)cc2)C1 [Example 130]
8.92 | Cc1cc(-c2nc(-c3ccc(CN[C@H]4C[C@H](C(=O)O)C4)cc3)no2)ccc1-c1ccccc1 [Example 134]
8.40 | CC(C)COc1ccc(-c2nc(-c3ccc(CN[C@H]4C[C@H](C(=O)O)C4)cc3)no2)cc1C(F)(F)F [Example 136]
7.68 | O=C(O)[C@@H]1CC[C@@H](NCc2ccc(-c3noc(-c4cc(-c5ccccc5)c(C(F)(F)F)s4)n3)cc2)C1 [Example 138]
7.64 | CC(C)Cc1ccc(-c2nc(-c3ccc(CN[C@@H]4CC[C@@H](C(=O)O)C4)cc3)no2)cc1 [Example 139]
8.17 | Cc1cc(-c2nc(-c3ccc(CN[C@@H]4CC[C@@H](C(=O)O)C4)cc3)no2)ccc1-c1ccccc1 [Example 142]
9.57 | Cc1cc(CNCCC(=O)O)ccc1-c1noc(-c2ccc(CC(C)C)cc2)n1 [Example 144]
8.35 | Cc1cc(CN[C@H]2C[C@H](C(=O)O)C2)ccc1-c1noc(-c2ccc(CC(C)C)cc2)n1 [Example 146, (1R,3R)-3-(4-(5-(4-isobutylphenyl)-1,2,4,-oxadiazol-3-yl)-3-methylbenzylamino)cyclobutanecarboxylic acid]
8.35 | O=C(O)CCNCc1ccc(OCc2cc(-c3ccccc3)c(C(F)(F)F)s2)cc1Cl [Example 149]
7.43 | COc1cc(OCc2cc(-c3ccccc3)c(C(F)(F)F)s2)ccc1CNCCC(=O)O [Example 150]
7.57 | O=C(O)CCNCc1ccc(OCc2cc(-c3ccccc3)c(C(F)(F)F)s2)c(Br)c1 [Example 151]
8.19 | O=C(O)CCNCc1ccc(OCc2cc(-c3ccccc3)c(C(F)(F)F)s2)c(F)c1 [Example 152]

SMILES | pEC50
O=C(O)CCNCc1ccc(OCc2ccc3c(cnn3Cc3ccccc3)c2)cc1 [Example 37, 3-(4-(1-benzyl-1H-indazol-5-yl)methoxy)benzylaminopropanoic acid] | 7.19
